Laboratory results: patent US6060604A, “Pharmaceutical compounds comprising polyamines substituted with electron-affinic groups” (priority 1996, dated 2000)

How the values were obtained:
[1] = cited from earlier work
[2] = tested on: CHO cells; assay: radiosensitization potency on hypoxic CHO cells at 20% survival, single X ray dose 8 Gy (Table 2); assay type: cell-based, Chinese hamster; details: Cricetulus griseus, CHO; hypoxic, single X ray dose of 8 Gy; read-out: drug molarity required to reduce cell survival to 20% of the untreated control value
Procedure: (§1) Cells were plated and allowed to attach on glass petri dishes for 3 h, then the media was replaced with 5 ml of Hank's balanced salt solution (HBSS) with or without drugs. To induce cell hypoxia, the dishes were placed at room temperature into sealed aluminum chambers (8 dishes/chamber). The chambers were degassed by pumping, and then back-filled with 95% N2 and 5% CO2. This procedure was repeated 4 times with 5 min holding periods under positive gas pressure between evacuations. After 1 h, when the cells were severely hypoxic, the chambers were placed in 37° C. water bath for 1 hr. For oxic treatment groups, cells were placed in 37° C. incubators for 2 h with 5 ml of HBSS (±drugs). The chambers were placed on a rotating table and exposed to an X-ray beam generated by a General Electric Maxitron 300 therapy machine operated at 250 kVp and 20 mA (HVL 20 mm Al filter; dose rate at 2 Gy/min). After irradiation, cells were rinsed with HBSS, and covered with fresh media. Cells were cultured for 7 days in a 37° C. incubator. The resulting cell colonies were stained and counted.
In the experiment shown in Table 2 hypoxic CHO cells were irradiated with a single X ray dose of 8 Gy, with or without drugs.

[3] = in vivo; details: mouse, po
[4] = tested on: hypoxic CHO cells; assay: radiosensitizing hypoxic CHO cells, drugs given 2 hours at 4° C.; assay type: cell-based, Chinese hamster
[5] = tested on: viral infections; cutaneous inflammation; eye disorders; details: cited from earlier work
[6] = tested on: Chinese hamster ovary (CHO) cells; assay: in vitro radiosensitization of hypoxic CHO cells, colony formation (Table 1); assay type: cell-based; details: drug dose 0.5 mM
Procedure: as §1, with “The chambers were degassed by pumping, and then back-filled with 95% N2 and 5% CO2.” left out

[7] = in vitro toxicity on hypoxic CHO cells, colony formation; assay type: cell-based, Chinese hamster; details: hamster, cho cells, 10 mM, 12 hours at 37° C., read-out: reduction in colony formation
Procedure: Subsequently, hypoxic CHO cells were incubated with 0.2 mM DATM or 10 mM metro for 12 hours at 37° C.

[8] = tested on: mice; details: reported value for metro; cited from earlier work

Cc1ncc([N+](=O)[O-])n1CCO [metronidazole, 1-(2-hydroxyethyl)-2-methyl-5-nitroimidazole]
toxicity at therapeutic levels ([1]; as radiosensitizers): highly toxic at therapeutic levels
photosensitization ([1]; dermatological use): photosensitizer
IC80 [2]: 10 mM
LD50 [3]: ~4000 mg/kg
radiosensitizing effectiveness, 0.2 mM DATM vs 10 mM metro [4]: equally effective
treatment of cutaneous inflammation due to dermatosis such as eczema, ulcers, acne, and rosacea [5]: effective
treatment of eye disorders such as blepharoconjunctivitis and meibomian gland dysfunctions [5]: effective
treatment of viral infections such as measles, herpes, and viral diverticulitis [5]: effective
Do [6]: 3.3 Gy
cytotoxicity at 12 h, 10000 µM [7]: 95%
LD50 [8]: about 3.3 g/kg
